What was measured:
[1] = Pharmacokinetic study of the drug, oral administration to rats (plasma, cerebrospinal fluid, brain tissue); format: in vivo; conditions: SD rat, 10 mg/kg, single; for AUC(0-inf) / AUC(0-t) / Cmax / MRT last / Tmax: plasma; for Kp: brain tissue (post perfusion) and plasma, read-out: B/P value; for Kp uu: in vivo, read-out: Kpuu Value
Text: Experimental Example 3 Pharmacokinetic Study of the Drug
Oral Administration Solvent: 5% DMSO+10% Solutol HS15+85% Saline
Oral administration preparation process: weighed the appropriate amount of powder, added the appropriate volume of DMSO, vortex, then added the appropriate volume of Solutol solution, vortex, and added the appropriate amount of saline, vortex ultrasound into a homogeneous and clarified state of the preparation solution.
The animal room was equipped with an air-conditioning system and well ventilated, and the indoor temperature was maintained in the range of 20-26° C., and the humidity was maintained in the range of 40%-70%. The animal room was artificially illuminated with 12 hours of light and 12 hours of dark (except for the working light that needed to be turned on for experimental operation and cleaning), and the experimental animals were free to feed and drink.
Animals were purchased and fed normally for at least 3 days, and rats that were examined by a veterinarian and had qualified physical conditions were enrolled in this experiment; each rat was labeled with a tail mark. Animals in the oral administration group were fasted overnight the day before administration, and resumed feeding and drinking freely 4 hours after administration.
Before administration, checked the state of the administered preparation, ensured the homogeneity of the preparation by vortexing, stirring or oscillating, and calculated the theoretical volume of the administered drug for each SD rat in each group according to the following formula.
Mode of administration: Oral administration to rats, fasted overnight prior to administration.

[2] = system: Human pleural mesothelioma cells NCI-H226; assay: Proliferation inhibition assay of human pleural mesothelioma cells NCI-H226 (CCK8); format: cell-based; conditions: 72 h, 3 days incubation
Text: Experimental Example 1 Cell Anti-Proliferation Test
Proliferation Inhibition Assay of Human Pleural Mesothelioma Cells NCI-H226 by YAP-TEAD Inhibitor Compounds
Experimental materials and equipment: Human pleural mesothelioma cells NCI-H226 were purchased from Nanjing Cobioer Biosciences CO., LTD. RPMI-1640 medium (Bio-Channel), DMSO (dimethyl sulfoxide), CCK8 (WST-8) cell analysis kit (Beyotime), 0.25% EDTA-Tripsin (trypsin solution), 1×PBS (phosphate buffer, PH7.2), 96-well plate (Corning), fetal bovine serum (FBS), 10,000 U/mL penicillin-G/streptomycin, high-speed cryo-centrifuge (EPPENDORF 5810R), enzyme-linked immunoassay (Tecan Spark).
• A) Tumor cells were cultured in RPMI-1640 (containing 10% FBS and 100 U/mL penicillin-G/streptomycin) at 37° C., 5% CO^2 and saturated humidity until 80-90% density. • B) Removed the culture medium from 10 cm Petri dishes; • C) Rinsed the cells once with 10 ml 1×PBS; • D) Added 4 ml 0.25% EDTA-Tripsin into 37° C., 5% CO^2 incubator for trypsin digestion for 5 minutes, transferred to 15 ml centrifuge tube, centrifuged at 200 g for 5 minutes, discarded the supernatant to get cell precipitate; • E) Resuspend with 4 ml DMEM medium, count and adjust to 10,000 cells/ml. • F) Added cell suspension to 96-well plate with 100 μL per well volume and incubate overnight at 37° C., 5% CO^2 incubator.
• A) Preparation of gradient dilution solution of tested compounds: the test compounds were configured into 1 mM reservoir solution. Then 1.5 μl of the reservoir solution was dissolved in 1.5 ml of DMSO-free culture solution, and then a 3-fold serial gradient dilution was performed with 0.1% DMSO culture solution for a total of 9 concentrations, and the concentrations of the compounds after dilution were as follows: • 333.33 nM, 111.11 nM, 37.03 nM, 12.35 nM, 4.15 nM, 1.37 nM, 0.46 nM, 0.15 nM • B) After thorough mixing, 100 μL of culture compound solution was taken separately to replace the culture solution in the cell culture plate, with 4 replicate wells for each concentration; • C) The cells were transferred to the incubator and incubated for 3 days.
• A) Removed the cell culture plate and added 10 μl of CCK-8 (WST-8) solution per well in the biosafety cabinet. • B) Placed the cell culture plate back into the incubator and continued incubation for 3 hours. • C) Determined the absorbance value by selecting 450 nm on a TECAN enzyme-linked immunoassay detector.
The cell viability (% Cell Viability) was calculated using the following formula.
[formula] • A (dosing): absorbance of wells with cells, CCK8 solution and drug solution • A (blank): absorbance of wells with medium and CCK8 solution but no cells • A (0 dosing): absorbance of wells with cells, CCK8 solution and no drug solution • Cell viability: Cell proliferation viability or cytotoxicity viability IC50 values were obtained by curve fitting with GraphPad Prism 8 software.

[3] = system: YAP-TEAD; assay: Nano luciferase method to detect YAP-TEAD inhibitor activity (293T cells transfected with pGL3B-8×GTiiC-nLuc-CMV-fLuc); format: cell-based; conditions: Homo sapiens, HEK-293T; transfected 293T cells, 48 hours incubation; read-out: Nano Luciferas detection (IC50)
Text: Experimental Example 2 Nano Luciferase Method to Detect YAP-TEAD Inhibitor Activity
(1) Experimental materials and equipment: 293T cells were purchased from Nanjing Cobioer Biosciences CO., LTD. DMEM medium (high sugar, phenol red free, Bio-Channel), DMSO (dimethyl sulfoxide), Lipo6000™ transfection reagent (Beyotime), pGL3B-8×GTiiC-nLuc-CMV-fLuc plasmid, 0.25% EDTA Tripsin (trypsin solution), 1×PBS (phosphate buffer, PH7.2), 96-well white cell culture plate (PerkinElmer), Fetal Bovine Serum (FBS), 10,000 U/mL penicillin-G/streptomycin, High-speed cryo-centrifuge (EPPENDORF 5810R), 37° C. CO^2 incubator, Vi-Cell® cell counter, Envision microplate reader (PerkinElmer).
Resuscitated 293T cells were inoculated into 10 cm petri dishes and placed in a 5% CO^2 incubator at a constant temperature of 37° C. To ensure transfection efficiency, cells in the logarithmic phase (cell density of about 50%-70%) should be used.
One day before transfection, cells in logarithmic phase were digested with Trypsin-EDTA, the reaction was terminated by adding medium, and the cell suspension was made by blowing and mixing with a pipette.
The cell concentration was determined using Vi-cell and diluted to a suspension of 5*10^5 cells per milliliter. Once the cell suspension was prepared, it was gently mixed and 10 ml of liquid was added to a 10 cm petri dish. […] The cells were incubated in a 5% CO^2 incubator at 37° C. for 1 day.
Take two clean and sterile centrifuge tubes, added 750 μL of opti-MEM Medium without antibiotics and serum respectively, then added […] of plasmid (pGL3B-8×GTiiC-nLuc-CMV-fLuc) to one of the tubes and gently blown with a pipette for mixing; the other tube was added with Lipo6000 transfection reagent and gently blown with a pipette for mixing. After standing at room temperature for 5 minutes, the culture medium containing DNA was gently added to the culture medium containing Lipo6000 transfection reagent, mixed by gently inverting the centrifuge tube, and stood at room temperature for 5 minutes.
The above mixture was added evenly dropwise to a 10-cm petri dish and replaced with fresh complete medium after 6 h of incubation.
After 1 day of transfection, Trypsin EDTA was used to digest the cells, medium was added to terminate the reaction, and a cell suspension was made by blowing and mixing with a pipette.
Cell concentration was determined using Vi-cell, and diluted to a suspension of 20,000 cells per milliliter.
After the cell suspension was prepared, it was gently mixed and 100 μL was added to each well in a 96-well plate so that the density of cells to be measured was 2000 per well.
The inoculated cell culture plates were incubated in an incubator, and the compounds in concentration gradients were added after about 24 hours.
The 10 mM compound reservoir solution was diluted to 50 μM with culture medium, and 50 μM compound solution was added sequentially to the third column of the deep-well plate, and 216 μL of culture medium containing 0.5% DMSO to the fourth to eleventh columns.
Gradient dilution: 100 μL of solution was pipetted from the third column and added to the fourth column, after mixing; another 100 μL of solution was pipetted from the fourth column and added to the fifth column, and the operation was repeated until the eleventh column.
Using a multichannel pipette, 25 μL of compound solution was pipetted from the deep-well plate and added to the 96-well culture plate, and each compound was repeated four times on the 96-well plate. A concentration gradient with a maximum concentration of 10,000 nM, 1:3.16, was eventually formed on the 96-well plate.
The 96-well plate was incubated in a 5% CO^2 incubator at a constant temperature of 37° C. for 48 hours, then removed and equilibrated at room temperature for 10 minutes.
100 μL of detection reagent was added to each well and placed on a horizontal shaker at low speed for 10 minutes to fully lyse the cells. […]

Structure (SMILES) | HL— [1] [h] | AUC(0-inf) [1] [ng·h/mL] | AUC(0-t) [1] [ng·h/mL] | Cmax [1] [ng/mL] | MRT last [1] [h] | Tmax [1] [h] | IC50 [2] [µM] | IC50 [3] [µM] | Kp [1] | Kp uu [1]
C=CC(=O)N1CCC(c2cccnc2Nc2ccc(C(F)(F)F)cc2)CC1 [Compound T1] | 1.93 | 5260 | 5250 | 919 | 4.28 | 1.33 | ≤ 0.1 | ≤ 0.1 | – | –
C=CC(=O)N1CCC(c2nccnc2Nc2ccc(C(F)(F)F)cc2)CC1 [Compound T16] | 2.07 | 17400 | 17300 | 2840 | 4.48 | 2.67 | ≤ 0.1 | ≤ 0.1 | 1.41 | 0.518
C=CC(=O)N1CCC(c2cc(C)cnc2Nc2ccc(C(F)(F)F)cc2)CC1 [Compound T22] | 2.64 | 3500 | 3290 | 594 | 3.97 | 2 | ≤ 0.1 | ≤ 0.1 | – | –
C=CC(=O)N1CCC(c2ccc(Cl)nc2Nc2ccc(C(F)(F)F)cc2)CC1 [Compound T27] | 3.03 | 19600 | 19400 | 1880 | 6.89 | 3.33 | 0.1 to 1 | ≤ 0.1 | – | –
C=CC(=O)N1CCC(c2c(Nc3ccc(C(F)(F)F)cc3)ncc3ccccc23)CC1 [Compound T37] | 13.97 | 18000 | 12300 | 804 | 9.85 | 4.67 | 0.1 to 1 | 0.1 to 1 | – | –
C=CC(=O)N1CCC(c2cc(Cl)cnc2Oc2ccc(C(F)(F)F)cc2)CC1 [Compound T40] | 4.40 | 18000 | 17500 | 1650 | 6.75 | 1.67 | ≤ 0.1 | ≤ 0.1 | 1.88 | 0.286
C=CC(=O)N1CCC(c2nccnc2Oc2ccc(C(F)(F)F)cc2)CC1 [Compound T58] | 2.67 | 7560 | 7540 | 1180 | 5.81 | 2 | ≤ 0.1 | ≤ 0.1 | 2.01 | 0.269
C=CC(=O)N1CCC(c2cccnc2Oc2ccc(C(F)(F)F)cc2)CC1 [Compound T59] | 2.66 | 3920 | 3910 | 679 | 4.6 | 1.5 | ≤ 0.1 | ≤ 0.1 | 1.22 | 0.765
C=CC(=O)N1CCC(c2cc(-c3cnn(C)c3)cnc2Nc2ccc(C(F)(F)F)cc2)CC1 [Compound T61] | 2.95 | 13200 | 10800 | 1960 | 3.49 | 2.67 | 1 to 5 | ≤ 0.1 | 0.56 | 0.038
C=CC(=O)N1CCC(c2cc(-c3cc[nH]n3)cnc2Nc2ccc(C(F)(F)F)cc2)CC1 [Compound T92] | 1.59 | 4830 | 4770 | 901 | 3.8 | 2.67 | 0.1 to 1 | ≤ 0.1 | – | –

Source: patent publication US20260152480A1, “POLYCYCLIC COMPOUND AND USE THEREOF” (TYK MEDICINES , INC., priority 2022, published 2026)
